From article PMC8023582 (ACS Chemical Biology, 2021)

Target: T1, RORα (Homo sapiens, UniProt P35398)
T1 sequence (P35398 272-510 limits assumed): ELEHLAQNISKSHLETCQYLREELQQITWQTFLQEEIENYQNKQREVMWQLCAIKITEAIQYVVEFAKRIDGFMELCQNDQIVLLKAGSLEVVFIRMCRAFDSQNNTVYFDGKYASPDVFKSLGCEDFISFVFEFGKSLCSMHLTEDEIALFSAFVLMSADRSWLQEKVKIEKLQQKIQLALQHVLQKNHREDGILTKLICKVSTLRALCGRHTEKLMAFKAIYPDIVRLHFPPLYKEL
Test: TR-FRET coactivator recruitment assay on RORα
Format: biochemical
Conditions: read-out: RORα: cofactor recruitment IC50; Figure 3B

**Q.** CC(C)CCC[C@@H](C)[C@H]1CC[C@H]2[C@@H]3CC=C4C[C@@H](OS(=O)(=O)O)CC[C@]4(C)[C@H]3CC[C@]12C [Chol-SO4, sulfated cholesterol] was tested. Which IC50 did it give?
**A.** 190 ± 50 nM
